Experimental data: patent US5733719A, “Method of making an assay compound” (priority 1995, dated 1998)
Structures can show the parent of a compound that is named as a salt. Values belong to the compound of their own block, whether it stands above or below them. Numbered stars: 1 amine (or outer) side, 2 acyl side, 3 side chain; on linkers, the order of the positions; unused ones are H or OH. Bridge positions count the residues as written; N and C are the ends. Peptide text beside a SMILES is read from it. I, II: the chains in the order shown. Rhodamine110 = O=C1OC2(c3ccc(N[*:1])cc3Oc3cc(N[*:2])ccc32)c2ccccc21

Experiments:
enzyme = test: Effect of dithioerythritol (DTE) on substrate sensitivity; conditions: dithioerythritol (DTE) at 1 mM
Source text: Modulators are components used to […] the sensitivity of the enzyme for the leaving group. The modulators speed up or slow down the activity of an enzyme by changing the active site. […] Preferred modulators for particular enzymes are included in Table 1.

Grans = test: Peptidases to distinguish leukemia from non-leukemia, granulocytes; assay type: cell-based, human; set-up: unit not given here
Source text: (§1) Artificial intelligence was used to analyze data of cellular enzyme functions, and determine normal and disease states. Peptidases were used to distinguish leukemia from non-leukemia (output pattern). For input patterns lymphocyte and granulocyte cell types were used with aminopeptidases, cathepsins and dipeptidylpeptidase enzyme activities. In this Example, illustrated in Tables 6A-6C, three normals and three leukemia patients were used as known output patterns for the neural network to learn (in practice, the larger the learning set the more accurate unknown prediction will be). Unknowns were then presented to the learned algorithm as shown in the test case examples. Clinical diagnosis was confirmed by physicians. The trained neural network was able to correctly classify the leukemia from the non-leukemia.

Lymphs = test: Peptidases to distinguish leukemia from non-leukemia, lymphocytes; assay type: cell-based, human; set-up: unit not given here
Source text: as §1

Native free fluorescence = assay type: physicochemical
Source text: Assays for peptidases using assay compounds generate fluorescence generally in the range of 10^-5 to 10^-6 Molar free rhodamine 110. Therefore, it is preferred that the free rhodamine 110 and blocked peptide impurities in the assay reagent should be removed to a concentration of less than the fluorescence generated by about 1×10^-6 M and more preferably less than the fluorescence generated by about 10^-7 Molar free indicator group. This amounts to a 100,000 photon count using rhodamine 110 as a standard at 10^-7 -10^-8 M, preferably 5×10^-8 M in a 1 cm path length cuvette when measured over 10 min. on a photon counting spectrofluorometer manufactured by the SLM Company of Chicago, Ill. This corresponds to a use level on the flow cytometer where no cellular false positive can be detected for a 10 minute period at the highest sensitivity setting. […] The presence of impurities causes a decrease in the storage stability of the compound, resulting in an increased autohydrolysis which leads to increased background fluorescence. A compound should be free of impurities such that when the compound (or reagent containing the compound) is stored at 4° C. for 30 days, preferably 90 days, more preferably 180 days, most preferably one year, the background fluorescence increases less than 10%, preferably less than 5%, most preferably less than 1% over these time periods, respectively. […]

[1] = tested on: acute lympholytic Ficoll prepared lymphocytes; test: Amino peptidase activity in acute lymphocytic leukemia lymphocytes; assay type: cell-based; conditions: FIG. 4B, log fluorescence at 525 nm v. time
Source text: The cell's ability to fight off an invader lies within its genetics and therefore cell type. The "readiness" however of any genetically capable group of cells to defend is different. A measure of this "readiness" is manifest in the available proteolytic enzymes contained within vacuoles or on the surface of the cell. The assay compound hydrolysis rate increases with increased mass of enzymes giving a picture of immune competence both in number of cells and activity level. […] Images were generated using Universal Imaging.

cells = conditions: even when buffered

- effect of DTE on sensitivity (enzyme): decreases the sensitivity
Compound: NC(=O)CC[C@H](N)C(=O)N[C@@H](CO)C(=O)Nc1ccc2c(c1)Oc1cc(NC(=O)[C@H](CO)NC(=O)[C@@H](N)CCC(N)=O)ccc1C21OC(=O)c2ccccc21 (relative stereo) [GLN-SER*]

- effect of DTE on sensitivity (enzyme): decreases the sensitivity
Compound: C[C@H](N)C(=O)N[C@@H](C)C(=O)N[C@@H](C)C(=O)N[C@@H](C)C(=O)Nc1ccc2c(c1)Oc1cc(NC(=O)[C@H](C)NC(=O)[C@H](C)NC(=O)[C@H](C)NC(=O)[C@H](C)N)ccc1C21OC(=O)c2ccccc21 [Ala-Ala-Ala-Ala, (H--L Ala--Ala--Ala--Ala)2 Rho 110-2TFA] (I: H-AAAA / II: H-AAAA; linker I:C-II:C via Rhodamine110)

- effect of DTE on sensitivity (enzyme): does not change the sensitivity
Compound: C[C@H](N)C(=O)NCC(=O)Nc1ccc2c(c1)Oc1cc(NC(=O)CNC(=O)[C@H](C)N)ccc1C21OC(=O)c2ccccc21 [Ala-Gly]

- effect of DTE on sensitivity (enzyme): decreases the sensitivity
Compound: CC(C)[C@H](N)C(=O)N[C@@H](CCCCN)C(=O)N[C@H](C(=O)N[C@@H](CCCCN)C(=O)Nc1ccc2c(c1)Oc1cc(NC(=O)[C@H](CCCCN)NC(=O)[C@@H](NC(=O)[C@H](CCCCN)NC(=O)[C@@H](N)C(C)C)C(C)C)ccc1C21OC(=O)c2ccccc21)C(C)C [Val-Lys-Val-Lys, (H--L--Val--Lys--Val--Lys)2 Rho 110-6TFA] (I: H-VKVK / II: H-VKVK; linker I:C-II:C via Rhodamine110)

- effect of DTE on sensitivity (enzyme): decreases the sensitivity
Compound: O=C1OC2(c3ccc(NC(=O)[C@@H]4CCCN4)cc3Oc3cc(NC(=O)[C@@H]4CCCN4)ccc32)c2ccccc21 [PRO, (H--L--Pro)2 Rho 110-2TFA]
- enzyme activity (Grans; J4 11/21/91 acute leuk.): 5.77
- enzyme activity (Grans; J4 12/2/91 AL): 3.59
- enzyme activity (Grans; J4 12/3/91 acute leuk.): 3.68
- enzyme activity (Grans; J5 11/27/91 AML): 5.92
- enzyme activity (Grans; J19 11/27/91 CLL): 5.50
- enzyme activity (Grans; J22 12/2/91 AML): 4.03
- enzyme activity (Grans; J22 12/9/91 AML): 3.53
- enzyme activity (Grans; N99° normal): 4.85
- enzyme activity (Grans; N191 normal): 4.34
- enzyme activity (Grans; N192 normal): 4.34
- enzyme activity (Grans; N193 normal): 4.75
- enzyme activity (Grans; N194 normal): 3.75
- enzyme activity (Grans; N195 normal): 4.70
- enzyme activity (Grans; N197 normal): 3.76
- enzyme activity (Grans; N200 normal): 4.04
- enzyme activity (Grans; N201 normal): 6.42
- enzyme activity (Grans; N202 normal): 4.96
- enzyme activity (Grans; N206 normal): 6.13
- enzyme activity (Grans; P68 tachycardia): 7.19
- enzyme activity (Grans; P69 pancreatic CA): 5.70
- enzyme activity (Grans; P70 cirrhosis/hemobilia): 0.66
- enzyme activity (Grans; P71 ac. pyelonephritis): 6.33
- enzyme activity (Lymphs; J4 11/21/91 acute leuk.): 0.47
- enzyme activity (Lymphs; J4 12/2/91 AL): 0.29
- enzyme activity (Lymphs; J4 12/3/91 acute leuk.): 0.24
- enzyme activity (Lymphs; J5 11/27/91 AML): 0.89
- enzyme activity (Lymphs; J19 11/27/91 CLL): 0.44
- enzyme activity (Lymphs; J22 12/2/91 AML): 0.40
- enzyme activity (Lymphs; J22 12/9/91 AML): 0.44
- enzyme activity (Lymphs; N99° normal): 1.02
- enzyme activity (Lymphs; N191 normal): 0.69
- enzyme activity (Lymphs; N192 normal): 1.14
- enzyme activity (Lymphs; N193 normal): 0.95
- enzyme activity (Lymphs; N194 normal): 0.86
- enzyme activity (Lymphs; N195 normal): 0.88
- enzyme activity (Lymphs; N197 normal): 0.57
- enzyme activity (Lymphs; N200 normal): 0.74
- enzyme activity (Lymphs; N201 normal): 1.10
- enzyme activity (Lymphs; N202 normal): 0.89
- enzyme activity (Lymphs; N206 normal): 1.28
- enzyme activity (Lymphs; P68 tachycardia): 0.70
- enzyme activity (Lymphs; P69 pancreatic CA): 0.66
- enzyme activity (Lymphs; P70 cirrhosis/hemobilia): 0.56
- enzyme activity (Lymphs; P71 ac. pyelonephritis): 0.52

Further lines, the compound ahead of its results:

Compound: NCC(=O)Nc1ccc2c(c1)Oc1cc(NC(=O)CN)ccc1C21OC(=O)c2ccccc21 [GLY, (Gly)2 Rho 110]
- enzyme activity (Grans; J4 11/21/91 acute leuk.): 27.79
- enzyme activity (Grans; J4 12/2/91 AL): 47.74
- enzyme activity (Grans; J4 12/3/91 acute leuk.): 48.53
- enzyme activity (Grans; J5 11/27/91 AML): 56.33
- enzyme activity (Grans; J19 11/27/91 CLL): 48.80
- enzyme activity (Grans; J22 12/2/91 AML): 34.02
- enzyme activity (Grans; J22 12/9/91 AML): 38.47
- enzyme activity (Grans; N99° normal): 45.00
- enzyme activity (Grans; N191 normal): 73.20
- enzyme activity (Grans; N192 normal): 43.67
- enzyme activity (Grans; N193 normal): 63.33
- enzyme activity (Grans; N194 normal): 60.30
- enzyme activity (Grans; N195 normal): 79.13
- enzyme activity (Grans; N197 normal): 76.88
- enzyme activity (Grans; N200 normal): 59.39
- enzyme activity (Grans; N201 normal): 75.48
- enzyme activity (Grans; N202 normal): 66.22
- enzyme activity (Grans; N206 normal): 91.93
- enzyme activity (Grans; P68 tachycardia): 100.00
- enzyme activity (Grans; P69 pancreatic CA): 88.04
- enzyme activity (Grans; P70 cirrhosis/hemobilia): 88.42
- enzyme activity (Grans; P71 ac. pyelonephritis): 59.35
- effect of DTE on sensitivity (enzyme): decreases the sensitivity
- enzyme activity (Lymphs; J4 11/21/91 acute leuk.): 14.02
- enzyme activity (Lymphs; J4 12/2/91 AL): 27.32
- enzyme activity (Lymphs; J4 12/3/91 acute leuk.): 31.51
- enzyme activity (Lymphs; J5 11/27/91 AML): 28.36
- enzyme activity (Lymphs; J19 11/27/91 CLL): 11.39
- enzyme activity (Lymphs; J22 12/2/91 AML): 24.50
- enzyme activity (Lymphs; J22 12/9/91 AML): 27.14
- enzyme activity (Lymphs; N99° normal): 30.68
- enzyme activity (Lymphs; N191 normal): 43.57
- enzyme activity (Lymphs; N192 normal): 37.47
- enzyme activity (Lymphs; N193 normal): 39.30
- enzyme activity (Lymphs; N194 normal): 39.76
- enzyme activity (Lymphs; N195 normal): 48.18
- enzyme activity (Lymphs; N197 normal): 42.96
- enzyme activity (Lymphs; N200 normal): 42.28
- enzyme activity (Lymphs; N201 normal): 45.32
- enzyme activity (Lymphs; N202 normal): 44.55
- enzyme activity (Lymphs; N206 normal): 55.56
- enzyme activity (Lymphs; P68 tachycardia): 59.29
- enzyme activity (Lymphs; P69 pancreatic CA): 67.38
- enzyme activity (Lymphs; P70 cirrhosis/hemobilia): 54.84
- enzyme activity (Lymphs; P71 ac. pyelonephritis): 41.93

Compound: CC(C)C[C@H](N)C(=O)NCC(=O)Nc1ccc2c(c1)Oc1cc(NC(=O)CNC(=O)[C@@H](N)CC(C)C)ccc1C21OC(=O)c2ccccc21 [tartrate salt of (LeuGly)2 rhodamine 110, (H--L--Leu--Gly)2 Rho 110-2Tartrate]
- native free fluorescence (Native free fluorescence): 61,000 photons

Compound: CC(C)C[C@H](N)C(=O)Nc1ccc2c(c1)Oc1cc(NC(=O)[C@@H](N)CC(C)C)ccc1C21OC(=O)c2ccccc21 [LEU, (Leu)2 Rho 110]
- enzymatic activity [1]: lost their enzymatic activity

Compound: C[C@@H](O)[C@H](N)C(=O)N1CCC[C@H]1C(=O)Nc1ccc2c(c1)Oc1cc(NC(=O)[C@@H]3CCCN3C(=O)[C@@H](N)[C@@H](C)O)ccc1C21OC(=O)c2ccccc21 [TP]
- enzyme activity (Grans; J4 11/21/91 acute leuk.): 5.96
- enzyme activity (Grans; J4 12/2/91 AL): 2.59
- enzyme activity (Grans; J4 12/3/91 acute leuk.): 1.93
- enzyme activity (Grans; J5 11/27/91 AML): 2.72
- enzyme activity (Grans; J19 11/27/91 CLL): 2.95
- enzyme activity (Grans; J22 12/2/91 AML): 2.33
- enzyme activity (Grans; J22 12/9/91 AML): 2.51
- enzyme activity (Grans; N99° normal): 3.71
- enzyme activity (Grans; N191 normal): 4.73
- enzyme activity (Grans; N192 normal): 4.62
- enzyme activity (Grans; N193 normal): 4.96
- enzyme activity (Grans; N194 normal): 3.77
- enzyme activity (Grans; N195 normal): 3.74
- enzyme activity (Grans; N197 normal): 3.82
- enzyme activity (Grans; N200 normal): 4.69
- enzyme activity (Grans; N201 normal): 4.23
- enzyme activity (Grans; N202 normal): 4.44
- enzyme activity (Grans; N206 normal): 5.98
- enzyme activity (Grans; P68 tachycardia): 4.63
- enzyme activity (Grans; P69 pancreatic CA): 4.21
- enzyme activity (Grans; P70 cirrhosis/hemobilia): 4.02
- enzyme activity (Grans; P71 ac. pyelonephritis): 4.37
- enzyme activity (Lymphs; J4 11/21/91 acute leuk.): 2.30
- enzyme activity (Lymphs; J4 12/2/91 AL): 1.46
- enzyme activity (Lymphs; J4 12/3/91 acute leuk.): 1.18
- enzyme activity (Lymphs; J5 11/27/91 AML): 1.32
- enzyme activity (Lymphs; J19 11/27/91 CLL): 0.50
- enzyme activity (Lymphs; J22 12/2/91 AML): 0.99
- enzyme activity (Lymphs; J22 12/9/91 AML): 1.02
- enzyme activity (Lymphs; N99° normal): 1.86
- enzyme activity (Lymphs; N191 normal): 2.14
- enzyme activity (Lymphs; N192 normal): 2.12
- enzyme activity (Lymphs; N194 normal): 1.82
- enzyme activity (Lymphs; N195 normal): 1.90
- enzyme activity (Lymphs; N197 normal): 1.96
- enzyme activity (Lymphs; N200 normal): 2.39
- enzyme activity (Lymphs; N201 normal): 1.88
- enzyme activity (Lymphs; N202 normal): 2.49
- enzyme activity (Lymphs; N206 normal): 2.89
- enzyme activity (Lymphs; P68 tachycardia): 1.90
- enzyme activity (Lymphs; P69 pancreatic CA): 2.26
- enzyme activity (Lymphs; P70 cirrhosis/hemobilia): 1.89
- enzyme activity (Lymphs; P71 ac. pyelonephritis): 1.86

Compound: Br.Cc1ncc(C)n2nc(CCc3nc(-c4ccccc4)cn3C)nc12 [hydrogen bromide (HBr), hydrogen bromide]
- effect on cells (cells): kills cells

Compound: C[C@H](N)C(=O)N[C@@H](C)C(=O)Nc1ccc2c(c1)Oc1cc(NC(=O)[C@H](C)NC(=O)[C@H](C)N)ccc1C21OC(=O)c2ccccc21 [ALA-ALA*]
- effect of DTE on sensitivity (enzyme): decreases the sensitivity
